From US9963445B2, “Chemical compounds” (SYNGENTA PARTICIPATIONS AG, priority 2013, dated 2018)

Tested on: Alopecurus myosuroides
Test: Post-emergence herbicidal activity, glasshouse pot test
Assay type: in vivo
Parameters: key: 0 = no damage to plant, 5 = total damage to plant
Conditions: Application post-emergence, rate 1000 g/ha, evaluated after 13 days
Description: (§1) Seeds of a variety of test species were sown in standard soil in pots. After 8 days cultivation (post-emergence) under controlled conditions in a glasshouse (at 24/16° C., day/night; 14 hours light; 65% humidity), the plants were sprayed with an aqueous spray solution derived from the formulation of the technical active ingredient in acetone/water (50:50) solution containing 0.5% Tween 20 (polyoxyethelyene sorbitan monolaurate, CAS RN 9005-64-5). The test plants were then grown in a glasshouse under controlled conditions (at 24/16° C., day/night; 14 hours light; 65% humidity) and watered twice daily. After 13 days, the test was evaluated (5=total damage to plant; 0=no damage to plant).
(§2) ABUTH=Abutilon theophrasti; SOLNI=Solanum nigrum; AMARE=Amaranthus retroflexus; SETFA=Setaria faberi; ALOMY=Alopecurus myosuroides; ECHCG=Echinochloa crus-galli, ZEAMX=zea mays.

| SMILES | ALOMY herbicidal damage score |
| --- | --- |
| CC1=C(Cl)C(=O)N(c2cc(/C=C/C(C)(C)C)ccn2)C1O (stereo not drawn) [AF26] | 0 |
| CC1=C(Cl)C(=O)N(c2cc(C(F)(F)F)cc[n+]2[O-])C1O (stereo not drawn) [AF28] | 1 |
| CC(=O)c1ccnc(N2C(=O)C(Cl)=C(C)C2O)c1 (stereo not drawn) [AF30] | 2 |
| CC1=C(Cl)C(=O)N(c2cc(C(C)(C)F)ccn2)C1O (stereo not drawn) [AF31] | 5 |
| CC1=C(Cl)C(=O)N(c2cc(C(C)(F)F)ccn2)C1O (stereo not drawn) [AF32] | 4 |
| CC1=C(Cl)C(=O)N(c2cc(C(F)F)ccn2)C1O (stereo not drawn) [AF34] | 5 |

Tested on: zea mays
Test: as above
Assay type: in vivo
Parameters: key: 0 = no damage to plant, 5 = total damage to plant
Conditions: Application post-emergence, rate 1000 g/ha, evaluated after 13 days
Description: as §1, §2

| SMILES | ZEAMX herbicidal damage score |
| --- | --- |
| CC1=C(Cl)C(=O)N(c2cc(/C=C/C(C)(C)C)ccn2)C1O (stereo not drawn) [AF26] | 2 |
| CC1=C(Cl)C(=O)N(c2cc(C(F)(F)F)cc[n+]2[O-])C1O (stereo not drawn) [AF28] | 1 |
| CC(=O)c1ccnc(N2C(=O)C(Cl)=C(C)C2O)c1 (stereo not drawn) [AF30] | 1 |
| CC1=C(Cl)C(=O)N(c2cc(C(C)(C)F)ccn2)C1O (stereo not drawn) [AF31] | 5 |
| CC1=C(Cl)C(=O)N(c2cc(C(C)(F)F)ccn2)C1O (stereo not drawn) [AF32] | 4 |
| CC1=C(Cl)C(=O)N(c2cc(C(F)F)ccn2)C1O (stereo not drawn) [AF34] | 3 |

Tested on: Setaria faberi
Test: as above
Assay type: in vivo
Parameters: key: 0 = no damage to plant, 5 = total damage to plant
Conditions: Application post-emergence, rate 1000 g/ha, evaluated after 13 days
Description: as §1, §2

| SMILES | SETFA herbicidal damage score |
| --- | --- |
| CC1=C(Cl)C(=O)N(c2cc(/C=C/C(C)(C)C)ccn2)C1O (stereo not drawn) [AF26] | 0 |
| CC1=C(Cl)C(=O)N(c2cc(C(F)(F)F)cc[n+]2[O-])C1O (stereo not drawn) [AF28] | 3 |
| CC(=O)c1ccnc(N2C(=O)C(Cl)=C(C)C2O)c1 (stereo not drawn) [AF30] | 3 |
| CC1=C(Cl)C(=O)N(c2cc(C(C)(C)F)ccn2)C1O (stereo not drawn) [AF31] | 5 |
| CC1=C(Cl)C(=O)N(c2cc(C(C)(F)F)ccn2)C1O (stereo not drawn) [AF32] | 5 |
| CC1=C(Cl)C(=O)N(c2cc(C(F)F)ccn2)C1O (stereo not drawn) [AF34] | 5 |

Tested on: Abutilon theophrasti
Test: as above
Assay type: in vivo
Parameters: key: 0 = no damage to plant, 5 = total damage to plant
Conditions: Application post-emergence, rate 1000 g/ha, evaluated after 13 days
Description: as §1, §2

| SMILES | ABUTH herbicidal damage score |
| --- | --- |
| CC1=C(Cl)C(=O)N(c2cc(/C=C/C(C)(C)C)ccn2)C1O (stereo not drawn) [AF26] | 1 |
| CC1=C(Cl)C(=O)N(c2cc(C(F)(F)F)cc[n+]2[O-])C1O (stereo not drawn) [AF28] | 3 |
| CC(=O)c1ccnc(N2C(=O)C(Cl)=C(C)C2O)c1 (stereo not drawn) [AF30] | 1 |
| CC1=C(Cl)C(=O)N(c2cc(C(C)(C)F)ccn2)C1O (stereo not drawn) [AF31] | 5 |
| CC1=C(Cl)C(=O)N(c2cc(C(C)(F)F)ccn2)C1O (stereo not drawn) [AF32] | 5 |
| CC1=C(Cl)C(=O)N(c2cc(C(F)F)ccn2)C1O (stereo not drawn) [AF34] | 5 |

Tested on: Amaranthus retroflexus
Test: as above
Assay type: in vivo
Parameters: key: 0 = no damage to plant, 5 = total damage to plant
Conditions: Application post-emergence, rate 1000 g/ha, evaluated after 13 days
Description: as §1, §2

| SMILES | AMARE herbicidal damage score |
| --- | --- |
| CC1=C(Cl)C(=O)N(c2cc(/C=C/C(C)(C)C)ccn2)C1O (stereo not drawn) [AF26] | 1 |
| CC1=C(Cl)C(=O)N(c2cc(C(F)(F)F)cc[n+]2[O-])C1O (stereo not drawn) [AF28] | 0 |
| CC(=O)c1ccnc(N2C(=O)C(Cl)=C(C)C2O)c1 (stereo not drawn) [AF30] | 1 |
| CC1=C(Cl)C(=O)N(c2cc(C(C)(C)F)ccn2)C1O (stereo not drawn) [AF31] | 5 |
| CC1=C(Cl)C(=O)N(c2cc(C(C)(F)F)ccn2)C1O (stereo not drawn) [AF32] | 5 |
| CC1=C(Cl)C(=O)N(c2cc(C(F)F)ccn2)C1O (stereo not drawn) [AF34] | 4 |

Tested on: Echinochloa crus-galli
Test: as above
Assay type: in vivo
Parameters: key: 0 = no damage to plant, 5 = total damage to plant
Conditions: Application post-emergence, rate 1000 g/ha, evaluated after 13 days
Description: as §1, §2

| SMILES | ECHCG herbicidal damage score |
| --- | --- |
| CC1=C(Cl)C(=O)N(c2cc(/C=C/C(C)(C)C)ccn2)C1O (stereo not drawn) [AF26] | 2 |
| CC1=C(Cl)C(=O)N(c2cc(C(F)(F)F)cc[n+]2[O-])C1O (stereo not drawn) [AF28] | 1 |
| CC(=O)c1ccnc(N2C(=O)C(Cl)=C(C)C2O)c1 (stereo not drawn) [AF30] | 2 |
| CC1=C(Cl)C(=O)N(c2cc(C(C)(C)F)ccn2)C1O (stereo not drawn) [AF31] | 5 |
| CC1=C(Cl)C(=O)N(c2cc(C(C)(F)F)ccn2)C1O (stereo not drawn) [AF32] | 5 |
| CC1=C(Cl)C(=O)N(c2cc(C(F)F)ccn2)C1O (stereo not drawn) [AF34] | 5 |

Tested on: Alopecurus myosuroides
Test: Pre-emergence herbicidal activity, glasshouse pot test
Assay type: in vivo
Conditions: pre-emergence spray, rate 1000 g/ha, evaluated after 13 days, scale 0-5
Description: as §1, with “After” for “After 8 days”, “for one day (pre-emergence)” for “(post-emergence)”
as §2

| SMILES | ALOMY damage score, application pre-emergence |
| --- | --- |
| CC1=C(Cl)C(=O)N(c2cc(/C=C/C(C)(C)C)ccn2)C1O (stereo not drawn) [AF26] | 0 |
| CC1=C(Cl)C(=O)N(c2cc(C(F)(F)F)cc[n+]2[O-])C1O (stereo not drawn) [AF28] | 0 |
| CC(=O)c1ccnc(N2C(=O)C(Cl)=C(C)C2O)c1 (stereo not drawn) [AF30] | 1 |
| CC1=C(Cl)C(=O)N(c2cc(C(C)(C)F)ccn2)C1O (stereo not drawn) [AF31] | 3 |
| CC1=C(Cl)C(=O)N(c2cc(C(C)(F)F)ccn2)C1O (stereo not drawn) [AF32] | 3 |
| CC1=C(Cl)C(=O)N(c2cc(C(F)F)ccn2)C1O (stereo not drawn) [AF34] | 3 |

Tested on: zea mays
Test: as above
Assay type: in vivo
Conditions: pre-emergence spray, rate 1000 g/ha, evaluated after 13 days, scale 0-5
Description: as §1, with “After” for “After 8 days”, “for one day (pre-emergence)” for “(post-emergence)”
as §2

| SMILES | ZEAMX damage score, application pre-emergence |
| --- | --- |
| CC1=C(Cl)C(=O)N(c2cc(/C=C/C(C)(C)C)ccn2)C1O (stereo not drawn) [AF26] | 0 |
| CC1=C(Cl)C(=O)N(c2cc(C(F)(F)F)cc[n+]2[O-])C1O (stereo not drawn) [AF28] | 0 |
| CC(=O)c1ccnc(N2C(=O)C(Cl)=C(C)C2O)c1 (stereo not drawn) [AF30] | 1 |
| CC1=C(Cl)C(=O)N(c2cc(C(C)(C)F)ccn2)C1O (stereo not drawn) [AF31] | 2 |
| CC1=C(Cl)C(=O)N(c2cc(C(C)(F)F)ccn2)C1O (stereo not drawn) [AF32] | 2 |
| CC1=C(Cl)C(=O)N(c2cc(C(F)F)ccn2)C1O (stereo not drawn) [AF34] | 2 |

Tested on: Setaria faberi
Test: as above
Assay type: in vivo
Conditions: pre-emergence spray, rate 1000 g/ha, evaluated after 13 days, scale 0-5
Description: as §1, with “After” for “After 8 days”, “for one day (pre-emergence)” for “(post-emergence)”
as §2

| SMILES | SETFA damage score, application pre-emergence |
| --- | --- |
| CC1=C(Cl)C(=O)N(c2cc(/C=C/C(C)(C)C)ccn2)C1O (stereo not drawn) [AF26] | 0 |
| CC1=C(Cl)C(=O)N(c2cc(C(F)(F)F)cc[n+]2[O-])C1O (stereo not drawn) [AF28] | 0 |
| CC(=O)c1ccnc(N2C(=O)C(Cl)=C(C)C2O)c1 (stereo not drawn) [AF30] | 1 |
| CC1=C(Cl)C(=O)N(c2cc(C(C)(C)F)ccn2)C1O (stereo not drawn) [AF31] | 5 |
| CC1=C(Cl)C(=O)N(c2cc(C(C)(F)F)ccn2)C1O (stereo not drawn) [AF32] | 5 |
| CC1=C(Cl)C(=O)N(c2cc(C(F)F)ccn2)C1O (stereo not drawn) [AF34] | 5 |

Tested on: Abutilon theophrasti
Test: as above
Assay type: in vivo
Conditions: pre-emergence spray, rate 1000 g/ha, evaluated after 13 days, scale 0-5
Description: as §1, with “After” for “After 8 days”, “for one day (pre-emergence)” for “(post-emergence)”
as §2

| SMILES | ABUTH damage score, application pre-emergence |
| --- | --- |
| CC1=C(Cl)C(=O)N(c2cc(/C=C/C(C)(C)C)ccn2)C1O (stereo not drawn) [AF26] | 0 |
| CC1=C(Cl)C(=O)N(c2cc(C(F)(F)F)cc[n+]2[O-])C1O (stereo not drawn) [AF28] | 0 |
| CC(=O)c1ccnc(N2C(=O)C(Cl)=C(C)C2O)c1 (stereo not drawn) [AF30] | 3 |
| CC1=C(Cl)C(=O)N(c2cc(C(C)(C)F)ccn2)C1O (stereo not drawn) [AF31] | 5 |
| CC1=C(Cl)C(=O)N(c2cc(C(C)(F)F)ccn2)C1O (stereo not drawn) [AF32] | 5 |
| CC1=C(Cl)C(=O)N(c2cc(C(F)F)ccn2)C1O (stereo not drawn) [AF34] | 5 |

Tested on: Amaranthus retroflexus
Test: as above
Assay type: in vivo
Conditions: pre-emergence spray, rate 1000 g/ha, evaluated after 13 days, scale 0-5
Description: as §1, with “After” for “After 8 days”, “for one day (pre-emergence)” for “(post-emergence)”
as §2

| SMILES | AMARE damage score, application pre-emergence |
| --- | --- |
| CC1=C(Cl)C(=O)N(c2cc(/C=C/C(C)(C)C)ccn2)C1O (stereo not drawn) [AF26] | 0 |
| CC1=C(Cl)C(=O)N(c2cc(C(F)(F)F)cc[n+]2[O-])C1O (stereo not drawn) [AF28] | 0 |
| CC(=O)c1ccnc(N2C(=O)C(Cl)=C(C)C2O)c1 (stereo not drawn) [AF30] | 3 |
| CC1=C(Cl)C(=O)N(c2cc(C(C)(C)F)ccn2)C1O (stereo not drawn) [AF31] | 5 |
| CC1=C(Cl)C(=O)N(c2cc(C(C)(F)F)ccn2)C1O (stereo not drawn) [AF32] | 5 |
| CC1=C(Cl)C(=O)N(c2cc(C(F)F)ccn2)C1O (stereo not drawn) [AF34] | 3 |

Tested on: Echinochloa crus-galli
Test: as above
Assay type: in vivo
Conditions: pre-emergence spray, rate 1000 g/ha, evaluated after 13 days, scale 0-5
Description: as §1, with “After” for “After 8 days”, “for one day (pre-emergence)” for “(post-emergence)”
as §2

| SMILES | ECHCG damage score, application pre-emergence |
| --- | --- |
| CC1=C(Cl)C(=O)N(c2cc(/C=C/C(C)(C)C)ccn2)C1O (stereo not drawn) [AF26] | 0 |
| CC1=C(Cl)C(=O)N(c2cc(C(F)(F)F)cc[n+]2[O-])C1O (stereo not drawn) [AF28] | 0 |
| CC(=O)c1ccnc(N2C(=O)C(Cl)=C(C)C2O)c1 (stereo not drawn) [AF30] | 2 |
| CC1=C(Cl)C(=O)N(c2cc(C(C)(C)F)ccn2)C1O (stereo not drawn) [AF31] | 4 |
| CC1=C(Cl)C(=O)N(c2cc(C(C)(F)F)ccn2)C1O (stereo not drawn) [AF32] | 4 |
| CC1=C(Cl)C(=O)N(c2cc(C(F)F)ccn2)C1O (stereo not drawn) [AF34] | 5 |
